Columns and labels:
PI3Kβ = biological target: T1, PI3Kβ (Homo sapiens, UniProt P42338); assay: PI3Kβ kinase assay (HTRF based PI3K inhibition assay); assay type: biochemical; conditions: for inhibition at 0.93 µM: 0.93 μM compound, read-out: PI3K beta average % Inhibition at 0.93 μM; for IC50: complex of human p110β and human p85α, 10 μM ATP, 10 μM PIP2, read-out: average IC50 in the PI3K beta biochemical assay; for PI3K beta average IC50/ PI3K alpha average IC50: ratio of PI3K beta IC50 to PI3K alpha IC50 (A2 and A1)
T1 construct: N-terminal His6-tagged recombinant full-length human p110β; His6 (N); purchased Millipore 14-603; host or cells: baculovirus infected Sf21 insect cells
T1 sequence (P42338 whole entry): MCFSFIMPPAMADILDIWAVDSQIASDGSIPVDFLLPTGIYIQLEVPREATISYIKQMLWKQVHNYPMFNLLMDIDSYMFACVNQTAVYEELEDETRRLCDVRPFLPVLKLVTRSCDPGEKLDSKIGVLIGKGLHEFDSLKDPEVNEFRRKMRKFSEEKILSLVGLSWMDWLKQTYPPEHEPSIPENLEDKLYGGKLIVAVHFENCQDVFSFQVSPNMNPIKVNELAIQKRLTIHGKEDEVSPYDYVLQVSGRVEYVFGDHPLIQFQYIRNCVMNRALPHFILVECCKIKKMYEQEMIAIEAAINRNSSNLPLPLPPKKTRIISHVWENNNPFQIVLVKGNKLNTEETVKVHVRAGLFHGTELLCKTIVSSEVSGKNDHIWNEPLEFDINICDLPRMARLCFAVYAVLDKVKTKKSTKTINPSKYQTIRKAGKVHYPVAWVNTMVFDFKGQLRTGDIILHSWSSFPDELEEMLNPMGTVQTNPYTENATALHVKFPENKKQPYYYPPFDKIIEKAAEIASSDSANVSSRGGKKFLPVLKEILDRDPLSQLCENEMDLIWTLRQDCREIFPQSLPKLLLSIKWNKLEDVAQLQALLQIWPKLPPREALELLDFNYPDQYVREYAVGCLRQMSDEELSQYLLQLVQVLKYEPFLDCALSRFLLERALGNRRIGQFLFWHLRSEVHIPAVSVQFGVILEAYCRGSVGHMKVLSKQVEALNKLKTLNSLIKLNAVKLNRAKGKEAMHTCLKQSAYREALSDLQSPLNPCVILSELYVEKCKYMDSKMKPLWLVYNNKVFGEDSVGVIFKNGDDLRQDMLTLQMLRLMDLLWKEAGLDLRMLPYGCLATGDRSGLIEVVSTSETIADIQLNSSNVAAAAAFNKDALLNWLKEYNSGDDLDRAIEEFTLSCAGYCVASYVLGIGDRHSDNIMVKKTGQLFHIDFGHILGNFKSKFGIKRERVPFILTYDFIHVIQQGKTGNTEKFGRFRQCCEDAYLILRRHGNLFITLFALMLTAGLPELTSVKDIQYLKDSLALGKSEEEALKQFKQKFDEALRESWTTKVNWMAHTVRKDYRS
T1 sequence (P27986 whole entry partner): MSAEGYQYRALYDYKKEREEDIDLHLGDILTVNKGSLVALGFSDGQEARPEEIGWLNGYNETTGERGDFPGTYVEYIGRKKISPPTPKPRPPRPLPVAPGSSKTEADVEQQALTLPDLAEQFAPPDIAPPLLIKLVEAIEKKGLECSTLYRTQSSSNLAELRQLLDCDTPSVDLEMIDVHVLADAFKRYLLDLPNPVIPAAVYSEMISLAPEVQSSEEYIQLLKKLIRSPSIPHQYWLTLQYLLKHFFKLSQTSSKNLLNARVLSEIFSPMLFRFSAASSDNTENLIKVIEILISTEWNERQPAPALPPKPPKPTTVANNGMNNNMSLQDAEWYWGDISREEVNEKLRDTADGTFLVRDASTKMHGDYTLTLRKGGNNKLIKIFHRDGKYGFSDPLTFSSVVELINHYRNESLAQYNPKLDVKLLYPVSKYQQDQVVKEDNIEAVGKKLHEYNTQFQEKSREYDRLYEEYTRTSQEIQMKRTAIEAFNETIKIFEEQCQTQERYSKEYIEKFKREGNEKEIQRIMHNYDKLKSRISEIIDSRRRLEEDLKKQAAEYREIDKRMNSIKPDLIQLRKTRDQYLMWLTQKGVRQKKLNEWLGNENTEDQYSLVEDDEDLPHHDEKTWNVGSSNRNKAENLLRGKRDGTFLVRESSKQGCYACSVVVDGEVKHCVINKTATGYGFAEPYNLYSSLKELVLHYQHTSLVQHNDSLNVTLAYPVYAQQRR
Text: Determination of % Inhibition and IC50 Values of Compounds in PI3Kβ Kinase Assay
PI3Kβ inhibitory activity of compounds of the present invention was quantified employing the HTRF based PI3K inhibition assay as described below.
(§1) As reagents for the kinase reaction itself and the quantification of the reaction product, the PI3-Kinase HTRF Assay kit from Millipore (#33-017) was used. With this kit the phosphatidylinositol 3,4,5-trisphosphate (PIP3) generated in the kinase reaction is detected by displacement of a biotinylated ligand from an energy transfer complex consisting of a Europium-labeled anti-GST monoclonal antibody, a GST-tagged PH domain, biotinylated PIP3 and Streptavidin-Allophycocyanin (APC).
(§2) For the assay 50 nL of a 80-fold concentrated solution of the test compound in DMSO was pipetted into a black low volume 384-well microtiter plate (Greiner Bio-One, Frickenhausen, Germany), 3 μl of a solution of PI3Kβ and phosphatidylinositol-4,5-bisphosphate (PIP2, 13.8 μM=>final conc. in 4 μl reaction volume=10 μM) in 1× reaction buffer (exact composition not disclosed by the vendor) were added and the mixture was incubated for 15 min at 22° C. to allow pre-binding of the test compounds to the enzyme before the start of the kinase reaction. The amount of PI3Kβ was chosen to have the enzyme reaction in the linear range and depended on the activity of the individual lot, typical concentrations in assay were in the range of 120 ng/mL. Then the kinase reaction was started by the addition of 1 μL of a solution of adenosine triphosphate (ATP, 40 μM=>final conc. in the 4 μl assay volume is 10 μM) in reaction buffer and the resulting mixture was incubated for a reaction time of 20 min at 22° C.
(§3) The reaction was stopped by the addition of 1 μL of an stop solution (containing the biotinylated PIP3 used as a tracer). Then 1 μL detection mix (containing a Europium-labeled anti-GST monoclonal antibody, a GST-tagged PH domain, and Streptavidin-Allophycocyanin) was added and resulting mixture was incubated for 3 h at 22° C. to allow the formation of complexes between the detection reagents and either the PIP3 generated in the kinase reaction, or the biotinylated PIP3 added with the stop solution. Subsequently the amount of energy transfer complex consisting of a Europium-labeled anti-GST monoclonal antibody, a GST-tagged PH domain, biotinylated PIP3 and Streptavidin-Allophycocyanin (APC) was evaluated by measurement of the resonance energy transfer from the Europium-labeled anti-GST monoclonal antibody to the Streptavidin-Allophycocyanin. Therefore, the fluorescence emissions at 620 nm and 665 nm after excitation at 350 nm were measured using a TR-FRET reader, e.g., a Pherastar (BMG Labtechnologies, Offenburg, Germany) or a Viewlux (Perkin-Elmer). The ratio of the emissions at 665 nm and at 622 nm were taken as the measure for the amount of biotinylated PIP3 bound to the GST-tagged PH domain, which is negatively correlated with the amount of PIP3 generated.

PI3Kα = biological target: T2, PI3Kα (Homo sapiens, UniProt P42336); assay: PI3Kα kinase assay (HTRF-based PI3K inhibition assay); assay type: biochemical; conditions: for inhibition at 0.93 µM: 0.93 μM compound, read-out: PI3K alpha average % Inhibition at 0.93 μM; for IC50: complex of human p110α and human p85α, 10 μM ATP, 10 μM PIP2, read-out: average IC50 in the PI3K alpha biochemical assay
T2 construct: N-terminal His6-tagged recombinant full-length human p110α; His6 (N); purchased Millipore 14-602; host or cells: baculovirus infected Sf21 insect cells
T2 sequence (P42336 whole entry): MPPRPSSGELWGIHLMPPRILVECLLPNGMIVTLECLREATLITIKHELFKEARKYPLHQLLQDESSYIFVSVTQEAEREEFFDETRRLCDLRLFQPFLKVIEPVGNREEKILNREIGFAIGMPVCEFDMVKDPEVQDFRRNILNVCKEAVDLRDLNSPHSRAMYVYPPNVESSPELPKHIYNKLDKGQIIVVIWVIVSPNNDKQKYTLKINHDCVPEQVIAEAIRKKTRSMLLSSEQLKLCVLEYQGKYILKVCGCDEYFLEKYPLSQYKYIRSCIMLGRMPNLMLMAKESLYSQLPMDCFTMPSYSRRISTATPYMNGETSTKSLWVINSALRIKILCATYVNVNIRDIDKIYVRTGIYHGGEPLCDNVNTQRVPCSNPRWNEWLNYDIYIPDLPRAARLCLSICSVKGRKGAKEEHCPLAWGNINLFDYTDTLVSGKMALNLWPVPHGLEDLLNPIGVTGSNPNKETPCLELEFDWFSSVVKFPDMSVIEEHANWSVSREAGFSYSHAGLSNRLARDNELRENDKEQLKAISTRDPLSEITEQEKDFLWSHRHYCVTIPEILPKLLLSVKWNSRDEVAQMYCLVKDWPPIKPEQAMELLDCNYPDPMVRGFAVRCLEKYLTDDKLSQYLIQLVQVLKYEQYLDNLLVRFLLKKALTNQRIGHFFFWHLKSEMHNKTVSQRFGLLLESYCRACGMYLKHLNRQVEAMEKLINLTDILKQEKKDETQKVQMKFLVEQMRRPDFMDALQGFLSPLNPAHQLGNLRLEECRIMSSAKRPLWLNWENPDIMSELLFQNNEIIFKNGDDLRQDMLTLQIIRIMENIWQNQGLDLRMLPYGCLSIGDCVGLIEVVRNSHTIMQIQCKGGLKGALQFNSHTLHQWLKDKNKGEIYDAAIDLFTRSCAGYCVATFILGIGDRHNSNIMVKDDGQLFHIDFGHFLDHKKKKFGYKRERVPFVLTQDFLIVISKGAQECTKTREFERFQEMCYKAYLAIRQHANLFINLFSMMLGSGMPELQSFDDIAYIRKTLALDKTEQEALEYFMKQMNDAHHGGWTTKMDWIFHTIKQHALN
T2 sequence (P27986 whole entry partner): as the sequence (P27986 whole entry partner) above
Text: Determination of % Inhibition and IC50 Values of Compounds in PI3Kα Kinase Assay
PI3Kα inhibitory activity of compounds of the present invention was quantified employing the HTRF-based PI3K inhibition assay as described below.
as §1
as §2, with “Germany), 3 μL of a” for “Germany), 3 μl of a”, “solution of PI3Kα and phosphatidylinositol-4,5-bisphosphate” for “solution of PI3Kβ and phosphatidylinositol-4,5-bisphosphate”, “amount of PI3Kα was chosen” for “amount of PI3Kβ was chosen”, “range of 90 ng/mL. Then” for “range of 120 ng/mL. Then”, “the 4 μL assay volume” for “the 4 μl assay volume”
as §3, with “as a tracer), then 1 μL” for “as a tracer). Then 1 μL”, “was incubated 3 h” for “was incubated for 3 h”, “stop solution. Subsequently, the amount” for “stop solution. Subsequently the amount”, “[…] was taken as” for “622 nm were taken as”, “PIP3 generated. […] Normally test compounds were tested on the same microtiter plate at 10 different concentrations in the range of 25 μM to 1.3 nM (25 μM, 8.3 μM, 2.8 μM, 0.93 μM, 0.31 μM, 103 nM, 34 nM, 11 nM, 3.8 nM and 1.3 nM, a dilution series prepared before the assay at the level of the 80-fold conc. stock solutions by serial 1:3 dilutions) in duplicate values for each concentration and […] values were calculated by a 4-parameter fit using in-house software.” for “PIP3 generated.”

Structure (SMILES)	inhibition at 0.93 µM (PI3Kβ) [%]	IC50 (PI3Kβ) [nM]	PI3K beta average IC50/ PI3K alpha average IC50 (PI3Kβ)	inhibition at 0.93 µM (PI3Kα) [%]	IC50 (PI3Kα) [nM]
COc1c(OC[C@H](O)CN2CCOCC2)ccc2c1N=C(NC(=O)c1cccnc1)N1CCN=C21 [Example 2, N-(8-{[(2R)-2-hydroxy-3-(morpholin-4-yl)propyl]oxy}-7-methoxy-2,3-dihydroimidazo[1,2-c]quinazolin-5-yl)pyridine-3-carboxamide]	94.4	–	–	–	–
O=C(NC1=Nc2c(ccc(OCC(O)CN3CCOCC3)c2OCCc2ccc(F)cc2)C2=NCCN12)c1cccnc1 (stereo not shown) [Example 9, N-{7-[2-(4-Fluorophenyl)ethoxy]-8-[2-hydroxy-3-(morpholin-4-yl)propoxy]-2,3-dihydroimidazo[1,2-c]quinazolin-5-yl}pyridine-3-carboxamide]	102	< 10	0.63	98.8	10 to 50
C[C@@H]1CN(C[C@@](C)(O)COc2ccc3c(c2OCCc2ccc(F)cc2)N=C(NC(=O)c2cnc(N)nc2)N2CCN=C32)C[C@H](C)O1 (relative stereo) [Example 11, rel-2-Amino-N-{8-({(2R)-3-[(2R,6S)-2,6-dimethylmorpholin-4-yl]-2-hydroxy-2-methylpropyl}oxy)-7-[2-(4-fluorophenyl)ethoxy]-2,3-dihydroimidazo[1,2-c]quinazolin-5-yl}pyrimidine-5-carboxamide]	95.3	10 to 50	9.66	109	< 10

The next lines start with the values.

inhibition at 0.93 µM (PI3Kβ) [%]	IC50 (PI3Kβ) [nM]	PI3K beta average IC50/ PI3K alpha average IC50 (PI3Kβ)	inhibition at 0.93 µM (PI3Kα) [%]	IC50 (PI3Kα) [nM]	Structure (SMILES)
90	10 to 50	2.78	91.5	< 10	CC(C)N(C[C@@H](O)COc1ccc2c(c1OCCc1ccc(F)cc1)N=C(NC(=O)c1cccnc1)N1CCN=C21)C(C)C [Example 7, N-(8-{[(2R)-3-(dipropan-2-ylamino)-2-hydroxypropyl]oxy}-7-[2-(4-fluorophenyl)ethoxy]-2,3-dihydroimidazo[1,2-c]quinazolin-5-yl)pyridine-3-carboxamide]
100	> 50	3.69	104	10 to 50	C[C@@H]1CN(C[C@@](C)(O)COc2ccc3c(c2OCCc2ccc(F)cc2)N=C(NC(=O)c2cccnc2)N2CCN=C32)C[C@H](C)O1 (relative stereo) [Example 12, rel-N-{8-({(2R)-3-[(2R,6S)-2,6-Dimethylmorpholin-4-yl]-2-hydroxy-2-methylpropyl}oxy)-7-[2-(4-fluorophenyl)ethoxy]-2,3-dihydroimidazo[1,2-c]quinazolin-5-yl}pyridine-3-carboxamide]
96.7	10 to 50	2.28	99.9	10 to 50	C[C@@H]1CN(C[C@@H](O)COc2ccc3c(c2OCCc2ccc(F)cc2)N=C(NC(=O)c2cccnc2)N2CCN=C32)C[C@H](C)O1 [Example 8, N-{8-({(2R)-3-[(2R,6S)-2,6-Dimethylmorpholin-4-yl]-2-hydroxypropyl}oxy)-7-[2-(4-fluorophenyl)ethoxy]-2,3-dihydroimidazo[1,2-c]quinazolin-5-yl}pyridine-3-carboxamide]
81.6	> 50	8.95	93.2	< 10	COc1c(OC[C@](C)(O)CN2C[C@@H](C)O[C@@H](C)C2)ccc2c1N=C(NC(=O)c1cccnc1)N1CCN=C21 (relative stereo) [Example 10, rel-N-[8-({(2R)-3-[(2R,6S)-2,6-Dimethylmorpholin-4-yl]-2-hydroxy-2-methylpropyl}oxy)-7-methoxy-2,3-dihydroimidazo[1,2-c]quinazolin-5-yl]pyridine-3-carboxamide]

Reference: patent US9730943B2, “Alkoxy-substituted 2,3-dihydroimidazo[1,2-C]quinazolines” (BAYER INTELLECTUAL PROPERTY GMBH, priority 2010, dated 2017)
